≈ marks a conversion by molar mass, not a printed value. Like-named read-outs stand apart in the source and are kept apart here.
What was measured:
[1] = system: S. pneumoniae ATCC49619; experiment: In vitro antibacterial activity (MIC assay), broth microdilution; type: cell-based; conditions: Streptococcus pneumoniae, ATCC49619; read-out: S. pneumoniae ATCC49619 MIC
How it was run: (§1)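 Bacteria at roughly 5×10^5 CFU/mL final were grown 16–24 h at 35° C in wells holding 2-fold serial dilutions (11 points) of compound prepared in 100% DMSO, following NCCLS M7-A5. MIC, in μg/mL, is the concentration that stops visible growth relative to untreated wells.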

[2] = system: S. aureus ATCC13709; experiment: as above; type: cell-based; conditions: Staphylococcus aureus, ATCC13709; read-out: S. aureus ATCC13709 MIC
How it was run: as §1

[3] = system: E. coli ATCC25922; experiment: as above; type: cell-based; conditions: Escherichia coli; obtained with E. coli ATCC25922; read-out: E. coli MIC, data marked (*)
How it was run: as §1

[4] = system: CipR MRSA OC4222; experiment: Resistant strains assay (broth microdilution MIC); type: cell-based; conditions: Staphylococcus aureus, read-out: MIC, Column G
Description: (§2) Testing protocols followed NCCLS methodology for broth microdilution assays.

[5] = system: CipR MRSA OC3946; experiment: Resistant strains assay (broth microdilution MIC); type: cell-based; conditions: Staphylococcus aureus, read-out: MIC, Column E
Protocol: (§3) Compounds of the present invention were tested for activity against susceptible and resistant bacterial strains in vitro, and activity was compared to known anti-bacterial agents. Testing protocols followed NCCLS methodology for broth microdilution assays. MIC values in μg/mL are presented in Table 3 for the following strains: Column A: MSSA ATCC13709 (Smith); Column B: MSSA ATCC 29213; Column C: MRSA OC3726 (COL); Column D: MRSA OC2878.
MIC values in μg/mL are presented in Table 4 for the following strains: Column E: CipR MRSA OC3946; Column F: CipR MRSA OC4159; Column G: CipR MRSA OC4222; Column H: CipR MRSA OC5273.

[6] = target: T1, E. coli topoisomerase IV (Escherichia coli, UniProt P0AFI2+P20083); experiment: Topoisomerase IV inhibition assay (relaxation); type: biochemical; conditions: E. coli topoisomerase IV relaxation, visual inspection of gels; read-out: Topoisomerase IV IC50 (converted)
T1 construct: purchased John Innes Enterprises Ltd. (John Innes Centre, UK)
T1 sequence (P0AFI2 whole entry): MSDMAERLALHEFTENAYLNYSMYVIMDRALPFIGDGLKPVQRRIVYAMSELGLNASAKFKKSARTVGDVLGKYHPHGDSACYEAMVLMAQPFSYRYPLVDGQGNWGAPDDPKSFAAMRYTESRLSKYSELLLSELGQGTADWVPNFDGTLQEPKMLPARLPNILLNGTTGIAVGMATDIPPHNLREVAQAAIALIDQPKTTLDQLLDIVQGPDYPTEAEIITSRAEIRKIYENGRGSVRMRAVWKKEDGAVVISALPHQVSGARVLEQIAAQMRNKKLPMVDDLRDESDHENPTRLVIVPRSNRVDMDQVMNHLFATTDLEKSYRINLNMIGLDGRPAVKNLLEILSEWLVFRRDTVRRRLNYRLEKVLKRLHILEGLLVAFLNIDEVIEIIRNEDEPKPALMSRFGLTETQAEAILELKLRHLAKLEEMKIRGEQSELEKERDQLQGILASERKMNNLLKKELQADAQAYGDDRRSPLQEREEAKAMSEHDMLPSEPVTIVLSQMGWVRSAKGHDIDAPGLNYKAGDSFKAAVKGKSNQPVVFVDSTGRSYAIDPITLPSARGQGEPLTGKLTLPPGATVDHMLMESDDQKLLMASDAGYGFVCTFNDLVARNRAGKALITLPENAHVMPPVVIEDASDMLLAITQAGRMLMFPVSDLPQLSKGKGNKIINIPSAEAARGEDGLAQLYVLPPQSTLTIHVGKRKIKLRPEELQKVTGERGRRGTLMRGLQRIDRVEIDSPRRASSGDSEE
T1 sequence (P20083 whole entry): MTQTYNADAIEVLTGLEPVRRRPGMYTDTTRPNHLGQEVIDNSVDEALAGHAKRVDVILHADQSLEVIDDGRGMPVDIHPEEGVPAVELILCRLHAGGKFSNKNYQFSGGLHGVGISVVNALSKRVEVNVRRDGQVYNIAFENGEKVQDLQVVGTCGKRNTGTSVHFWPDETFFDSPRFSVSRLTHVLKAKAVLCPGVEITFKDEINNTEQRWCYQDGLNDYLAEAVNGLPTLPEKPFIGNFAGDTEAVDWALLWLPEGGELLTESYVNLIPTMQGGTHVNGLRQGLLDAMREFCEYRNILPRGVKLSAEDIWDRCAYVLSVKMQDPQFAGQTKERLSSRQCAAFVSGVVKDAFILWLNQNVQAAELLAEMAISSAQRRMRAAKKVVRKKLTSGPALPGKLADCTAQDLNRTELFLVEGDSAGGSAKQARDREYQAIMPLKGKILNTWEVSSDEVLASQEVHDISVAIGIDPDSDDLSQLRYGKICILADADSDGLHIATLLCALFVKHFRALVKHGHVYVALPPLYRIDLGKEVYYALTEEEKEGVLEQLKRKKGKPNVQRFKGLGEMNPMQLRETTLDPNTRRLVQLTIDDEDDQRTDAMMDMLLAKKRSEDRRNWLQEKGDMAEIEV
Protocol: Inhibition of the relaxation activity of E. coli topoisomerase IV was determined using enzyme, buffers and substrates received from John Innes Enterprises Ltd. (John Innes Centre, UK). The reactions were performed according to the manufacturer's directions, with the following modifications.
DNA relaxation reactions were carried out in a total reaction volume of 20 μL, containing 300 ng of supercoiled pBR322, 40 mM HEPES-KOH (pH 7.6), 100 mM potassium glutamate, 10 mM Mg(OAc)2, 10 mM DTT, 4 μg/mL tRNA, 2 mM ATP, and 50 μg/mL BSA. Compounds, diluted in 10% DMSO, were added to the reaction mixture to reach a final concentration of 0.5% DMSO. Enzyme was diluted to 0.45 unit/μL in a solution of 40 mM HEPES-KOH (pH 7.6), 150 mM potassium glutamate, 1 mM DTT, 1 mM EDTA, and 40% glycerol. Diluted enzyme (0.9 unit) was added to each reaction.
The reactions were incubated at 37° C. for 45 min. The reactions were then cooled to 0° C. followed by addition of 3 μL of 40% glycerol, 100 mM Tris-HCl (pH 7.5), 50 mM EDTA, 0.5% SDS and 0.1% bromophenol blue. Samples were separated on 1.0% agarose gels. Gels were stained with Ethidium bromide and photographed with a Stratagene Eagle Eye II.

[7] = system: MSSA ATCC 29213; experiment: Resistant strains assay (broth microdilution MIC); type: cell-based; conditions: Staphylococcus aureus, read-out: MIC, Column B
Protocol: as §3

[8] = system: MSSA ATCC13709 (Smith); experiment: Resistant strains assay (broth microdilution MIC); type: cell-based; conditions: Staphylococcus aureus
Protocol: as §3

[9] = target: T2, E. coli DNA gyrase (Escherichia coli, UniProt P0AES4+P0AES6); experiment: DNA gyrase inhibition assay (supercoiling); type: biochemical; conditions: E. coli DNA gyrase supercoiling, visual inspection of gels; read-out: DNA Gyrase IC50 (converted)
T2 construct: purchased John Innes Enterprises Ltd. (John Innes Centre, UK)
T2 sequence (P0AES4 whole entry, one chain of several): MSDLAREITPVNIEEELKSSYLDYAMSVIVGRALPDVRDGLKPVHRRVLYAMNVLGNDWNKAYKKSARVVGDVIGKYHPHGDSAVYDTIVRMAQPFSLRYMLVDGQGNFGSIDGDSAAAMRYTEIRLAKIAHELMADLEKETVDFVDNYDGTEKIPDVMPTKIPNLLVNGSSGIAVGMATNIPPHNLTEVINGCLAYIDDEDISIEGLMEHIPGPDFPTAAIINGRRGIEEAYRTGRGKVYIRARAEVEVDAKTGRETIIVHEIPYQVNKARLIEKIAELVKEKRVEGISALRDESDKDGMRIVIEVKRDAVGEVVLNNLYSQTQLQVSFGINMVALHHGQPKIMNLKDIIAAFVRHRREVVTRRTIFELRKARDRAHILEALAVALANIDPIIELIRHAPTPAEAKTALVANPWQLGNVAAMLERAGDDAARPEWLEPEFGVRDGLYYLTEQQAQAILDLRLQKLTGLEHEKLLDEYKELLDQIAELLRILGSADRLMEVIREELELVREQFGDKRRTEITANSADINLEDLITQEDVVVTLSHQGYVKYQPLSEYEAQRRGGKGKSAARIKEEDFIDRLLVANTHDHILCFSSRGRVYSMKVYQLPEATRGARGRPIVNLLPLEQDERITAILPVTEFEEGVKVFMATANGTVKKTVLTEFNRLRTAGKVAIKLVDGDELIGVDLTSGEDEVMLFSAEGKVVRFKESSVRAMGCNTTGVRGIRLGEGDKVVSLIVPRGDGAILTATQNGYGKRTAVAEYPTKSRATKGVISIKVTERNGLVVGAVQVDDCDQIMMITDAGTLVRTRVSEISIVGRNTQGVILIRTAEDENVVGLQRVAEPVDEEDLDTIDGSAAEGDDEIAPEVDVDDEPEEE
How it was run: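 Agarose-gel (1.0%, ethidium-stained) readout of supercoiled versus relaxed pBR322 after 30 min at 37° C. Each reaction held 250 ng DNA, 0.2 unit enzyme, 1 mM ATP, 4 mM MgCl2, 24 mM KCl in 35 mM Tris-HCl pH 7.5, and compound at 0.5% DMSO final.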

[10] = system: E. coli KL-16 (GSC strain 4245); experiment: In vitro antibacterial activity (MIC assay), broth microdilution; type: cell-based; conditions: Escherichia coli
How it was run: as §1

[11] = system: MRSA OC2878; experiment: Resistant strains assay (broth microdilution MIC); type: cell-based; conditions: Staphylococcus aureus, read-out: MIC, Column D
Description: as §2

[12] = system: CipR MRSA OC5273; experiment: Resistant strains assay (broth microdilution MIC); type: cell-based; conditions: Staphylococcus aureus, read-out: MIC, Column H
Description: as §2

[13] = system: MRSA OC3726 (COL); experiment: Resistant strains assay (broth microdilution MIC); type: cell-based; conditions: Staphylococcus aureus, read-out: MIC, Column C
Description: as §2

[14] = system: CipR MRSA OC4159; experiment: Resistant strains assay (broth microdilution MIC); type: cell-based; conditions: Staphylococcus aureus, read-out: MIC, Column F
Description: as §2

Row | Structure (SMILES) | MIC [1] [µg/mL] | MIC [2] [µg/mL] | MIC [3] [µg/mL] | MIC ([4]; CipR MRSA OC4222) [µg/mL] | MIC ([5]; CipR MRSA OC3946) [µg/mL] | IC50 [6] [nM] | MIC [7] [µg/mL] | MIC [8] [µg/mL] | IC50 [9] [nM] | MIC [10] [µg/mL] | MIC ([11]; MRSA OC2878) [µg/mL] | MIC [12] [µg/mL] | MIC ([13]; MRSA OC3726 (COL)) [µg/mL] | MIC [14] [µg/mL] | MIC ([5]; MRSA) [µg/mL] | MIC ([4]; MRSA) [µg/mL] | MIC ([11]; MRSA) [µg/mL] | MIC ([13]; MRSA) [µg/mL]
1 | COc1ccc2nccc(-n3cc4c(n3)CCC(NCCOc3cc(F)cc(F)c3)C4)c2n1 (centres unmarked) [Example 134, [2-(3,5-Difluoro-phenoxy)-ethyl]-[2-(6-methoxy-[1,5]naphthyridin-4-yl)-4,5,6,7-tetrahydro-2H-indazol-5-yl]-amine] | 4 (≈ 8.86 µM) | 1 (≈ 2.21 µM) | > 16 | 0.5 (≈ 1.11 µM) |  |  |  |  |  |  |  |  |  |  |  |  |  | 
2 | COc1ccc2nccc(-n3cc4c(n3)CCC(NCc3ccc5c(c3)OCCO5)C4)c2c1 (centres unmarked) [Example 50, (2,3-Dihydro-benzo[1,4]dioxin-6-ylmethyl)-[2-(6-methoxy-quinolin-4-yl)-4,5,6,7-tetrahydro-2H-indazol-5-yl]-amine] | 1 (≈ 2.26 µM) | 0.5 (≈ 1.13 µM) |  | 16 (≈ 36.2 µM) | 0.5 (≈ 1.13 µM) | 136 | 16 (≈ 36.2 µM) | 0.5 (≈ 1.13 µM) | 4520 | 128 (≈ 289 µM) | 0.5 (≈ 1.13 µM) | 1 (≈ 2.26 µM) | 1 (≈ 2.26 µM) | 16 (≈ 36.2 µM) |  |  |  | 
3 | COc1ccc2nccc(-n3cc4c(n3)CCC(NCc3ccc5c(c3)NC(=O)CS5)C4)c2c1 (centres unmarked) [Example 52, 6-{[2-(6-Methoxy-quinolin-4-yl)-4,5,6,7-tetrahydro-2H-indazol-5-ylamino]-methyl}-4H-benzo[1,4]thiazin-3-one] | 1 (≈ 2.12 µM) | 0.25 (≈ 0.53 µM) |  |  |  | 63.6 | 1 (≈ 2.12 µM) | 0.25 (≈ 0.53 µM) | 265 | 2 (≈ 4.24 µM) | 0.5 (≈ 1.06 µM) | 0.5 (≈ 1.06 µM) | 0.5 (≈ 1.06 µM) | 0.25 (≈ 0.53 µM) | 0.125 (≈ 0.265 µM) | 0.125 (≈ 0.265 µM) |  | 
4 | O=C1CSc2ccc(C(=O)NC3CCc4nn(-c5cccc6cccnc56)cc4C3)cc2N1 (centres unmarked) [Example 31, 3-Oxo-3,4-dihydro-2H-benzo[1,4]thiazine-6-carboxylic acid (2-quinolin-8-yl-4,5,6,7-tetrahydro-2H-indazol-5-yl)-amide] | 4 (≈ 8.78 µM) | 0.25 (≈ 0.549 µM) |  | 4 (≈ 8.78 µM) |  | 274 | 16 (≈ 35.1 µM) | 0.25 (≈ 0.549 µM) | 4390 | 16 (≈ 35.1 µM) | 0.25 (≈ 0.549 µM) | 0.5 (≈ 1.1 µM) | 0.5 (≈ 1.1 µM) | 4 (≈ 8.78 µM) | 0.125 (≈ 0.274 µM) |  |  | 
5 | COc1ccc2nccc(-n3cc4c(n3)CCC(NC/C=C/c3ccccc3)C4)c2n1 (centres unmarked) [Example 46, [2-(6-Methoxy-[1,5]naphthyridin-4-yl)-4,5,6,7-tetrahydro-2H-indazol-5-yl]-(3-phenyl-allyl)-amine] | < 0.125 | 0.06 (≈ 0.146 µM) |  | 0.062 (≈ 0.151 µM) | 0.062 (≈ 0.151 µM) | < 36.5 | 8 (≈ 19.4 µM) | 0.062 (≈ 0.151 µM) | 292 | 16 (≈ 38.9 µM) | 0.125 (≈ 0.304 µM) | 0.125 (≈ 0.304 µM) | 0.25 (≈ 0.608 µM) | 0.062 (≈ 0.151 µM) |  |  |  | 
6 | COc1ccc2nccc(-n3cc4c(n3)CCC(NCc3ccc5c(c3)NC(=O)CS5)C4)c2n1 (centres unmarked) [Example 41, 6-{[2-(6-Methoxy-[1,5]naphthyridin-4-yl)-4,5,6,7-tetrahydro-2H-indazol-5-ylamino]-methyl}-4H-benzo[1,4]thiazin-3-one] | 2 (≈ 4.23 µM) | 0.25 (≈ 0.529 µM) |  | 0.25 (≈ 0.529 µM) | 0.25 (≈ 0.529 µM) | 33.9 | 0.25 (≈ 0.529 µM) | 0.25 (≈ 0.529 µM) | 127 | 2 (≈ 4.23 µM) | 0.5 (≈ 1.06 µM) | 0.5 (≈ 1.06 µM) | 1 (≈ 2.12 µM) | 0.25 (≈ 0.529 µM) |  |  |  | 
7 | COc1ccc2nccc(-n3cc4c(n3)CCC(NC(=O)c3cc5c(cc3F)SCC(=O)N5)C4)c2n1 (centres unmarked) [Example 5, 7-Fluoro-3-oxo-3,4-dihydro-2H-benzo[1,4]thiazine-6-carboxylic acid [2-(6-methoxy-[1,5]naphthyridin-4-yl)-4,5,6,7-tetrahydro-2H-indazol-5-yl]-amide] | 2 (≈ 3.96 µM) | 0.25 (≈ 0.495 µM) |  | 0.015 (≈ 0.0297 µM) | 0.007 (≈ 0.0139 µM) | 248 | 0.031 (≈ 0.0614 µM) | 0.25 (≈ 0.495 µM) | 238 | 128 (≈ 254 µM) | 0.031 (≈ 0.0614 µM) | 0.031 (≈ 0.0614 µM) | 0.062 (≈ 0.123 µM) | 0.007 (≈ 0.0139 µM) |  |  |  | 
8 | COc1ccc2nccc(-n3cc4c(n3)CCC(NC(=O)c3ccc5c(c3)NC(=O)CS5)C4)c2n1 (centres unmarked) [Example 4, 3-Oxo-3,4-dihydro-2H-benzo[1,4]thiazine-6-carboxylic acid [2-(6-methoxy-[1,5]naphthyridin-4-yl)-4,5,6,7-tetrahydro-2H-indazol-5-yl]-amide] | 4 (≈ 8.22 µM) | 0.06 (≈ 0.123 µM) |  | 0.5 (≈ 1.03 µM) | 0.007 (≈ 0.0144 µM) | 514 | 1 (≈ 2.06 µM) | 0.06 (≈ 0.123 µM) | 514 | > 128 | 0.031 (≈ 0.0637 µM) | 0.062 (≈ 0.127 µM) | 0.062 (≈ 0.127 µM) | 0.5 (≈ 1.03 µM) |  |  |  | 
9 | COc1ccc2nccc(-n3cc4c(n3)CCC(NC/C=C/c3ccccc3)C4)c2c1 (centres unmarked) [Example 55, [2-(6-Methoxy-quinolin-4-yl)-4,5,6,7-tetrahydro-2H-indazol-5-yl]-(3-phenyl-allyl)-amine] | 1 (≈ 2.44 µM) | 0.5 (≈ 1.22 µM) |  | 0.25 (≈ 0.609 µM) | 0.5 (≈ 1.22 µM) |  | 2 (≈ 4.87 µM) | 0.5 (≈ 1.22 µM) |  | 64 (≈ 156 µM) | 0.5 (≈ 1.22 µM) | 1 (≈ 2.44 µM) | 1 (≈ 2.44 µM) | 0.5 (≈ 1.22 µM) |  |  |  | 
10 | COc1ccc2nccc(-n3cc4c(n3)CCC(NC(=O)c3cc5c(cc3F)SCC(=O)N5)C4)c2c1 (centres unmarked) [Example 18, 7-Fluoro-3-oxo-3,4-dihydro-2H-benzo[1,4]thiazine-6-carboxylic acid [2-(6-methoxy-quinolin-4-yl)-4,5,6,7-tetrahydro-2H-indazol-5-yl]-amide] | 1 (≈ 1.99 µM) | 0.03 (≈ 0.0596 µM) |  | 0.031 (≈ 0.0616 µM) | 0.015 (≈ 0.0298 µM) | 496 | 0.25 (≈ 0.496 µM) | 0.031 (≈ 0.0616 µM) |  | 4 (≈ 7.94 µM) | 0.062 (≈ 0.123 µM) | 0.062 (≈ 0.123 µM) | 0.062 (≈ 0.123 µM) | 0.031 (≈ 0.0616 µM) |  |  |  | 
11 | COc1ccc2nccc(-n3cc4c(n3)CCC(NC(=O)c3ccc5c(c3)NC(=O)CS5)C4)c2c1 (centres unmarked) [Example 17, 3-Oxo-3,4-dihydro-2H-benzo[1,4]thiazine-6-carboxylic acid [2-(6-methoxy-quinolin-4-yl)-4,5,6,7-tetrahydro-2H-indazol-5-yl]-amide] | 2 (≈ 4.12 µM) | 0.25 (≈ 0.515 µM) |  | 0.062 (≈ 0.128 µM) | 0.015 (≈ 0.0309 µM) | 257 | 0.062 (≈ 0.128 µM) | 0.25 (≈ 0.515 µM) | 247 | 4 (≈ 8.24 µM) |  | 0.25 (≈ 0.515 µM) |  | 0.031 (≈ 0.0638 µM) |  |  | 0.125 (≈ 0.257 µM) | 0.125 (≈ 0.257 µM)
